Test results reported in EP4813993A1, “COMPOUND, PREPARATION METHOD THEREFOR, AND USE THEREOF” (Sichuan Kelun Pharmaceutical Research Institute Co., Ltd., priority 2023, dated 2025).

Legend:
incision pain model [1] = experiment: Incision pain model in ICR mice, Von Frey test; format: in vivo; conditions: Mean + SEM, n = 10; for PWT 50% value (g) Post-surgery, Preadministration / PWT 50% value (g) Pre-surgery: 50 mg/kg group; for PWT 50% value (g) Post-surgery, Preadministration: baseline before administration; for PWT 50% value (g) Pre-surgery: baseline before surgery; for PWT 50% value (g) 0.5 h / PWT 50% value (g) 2 h / PWT 50% value (g) 4 h: 50 mg/kg single dose; for PWT 50% value (g) 0.5 h: 0.5 h after administration; for PWT 50% value (g) 2 h: 2 h after administration; for PWT 50% value (g) 4 h: 4 h after administration
Experimental: Experimental Example 6: Pharmacodynamic effect study of compounds in incision pain model in ICR mice Experimental animals: ICR mice, male, 28-35 g.
(§1) Compound preparation: 5% (final preparation volume) of DMSO was added to dissolve the test compound, and then 10% (final preparation volume) of Cremophor EL and 85% Saline were sequentially added.
(§2) A plantar incision pain model was established in mice via surgery before the administration and test. Mice were placed in an anesthesia induction chamber and given 3%-4% isoflurane for anesthesia induction. After the anesthesia induction, a breathing mask was applied, and the isoflurane concentration was adjusted to 1%-2% to prevent the mice from suffering pain during the surgery. Each mouse was placed in a supine position, and the surgical site was disinfected with alcohol and iodophor. Under sterile conditions, a 0.5 cm longitudinal incision was made on the left hind paw surface, 0.2 cm away from the heel, extending toward the toes. The skin and fascia were incised; the plantar muscle was separated, slightly lifted, and longitudinally incised. The skin was then sutured with 5-0 sutures and disinfected.
(§3) 2. Administration and test
(§4) The Von Frey test was performed once before the surgery. On the second day after animal modeling, the test was repeated, and animals meeting the baseline requirements were selected for enrollment. The animals were randomly grouped based on the 50% PWT values, with 10 animals per group. Administration was performed under a double-blind test protocol. The 50% PWT of the animals was measured separately before administration (baseline) and at 0.5 h, 2 h, and 4 h after administration, and a single dose was administered. The model control group was given normal saline, while the compound groups were given the compounds according to the administration doses in the table below.

incision pain model [2] = experiment: Incision pain model in ICR mice, Von Frey test; format: in vivo; conditions: 50 mg/kg single dose, Mean + SEM, n = 10
Nav1.8 channels = biological target: T1, Nav1.8 channels (Homo sapiens, UniProt Q9Y5Y9); experiment: Manual patch-clamp, current of stably overexpressed Nav1.8 channels (resting state voltage program); format: cell-based
T1 construct: expressed in transfected cells
T1 sequence (Q9Y5Y9 whole entry): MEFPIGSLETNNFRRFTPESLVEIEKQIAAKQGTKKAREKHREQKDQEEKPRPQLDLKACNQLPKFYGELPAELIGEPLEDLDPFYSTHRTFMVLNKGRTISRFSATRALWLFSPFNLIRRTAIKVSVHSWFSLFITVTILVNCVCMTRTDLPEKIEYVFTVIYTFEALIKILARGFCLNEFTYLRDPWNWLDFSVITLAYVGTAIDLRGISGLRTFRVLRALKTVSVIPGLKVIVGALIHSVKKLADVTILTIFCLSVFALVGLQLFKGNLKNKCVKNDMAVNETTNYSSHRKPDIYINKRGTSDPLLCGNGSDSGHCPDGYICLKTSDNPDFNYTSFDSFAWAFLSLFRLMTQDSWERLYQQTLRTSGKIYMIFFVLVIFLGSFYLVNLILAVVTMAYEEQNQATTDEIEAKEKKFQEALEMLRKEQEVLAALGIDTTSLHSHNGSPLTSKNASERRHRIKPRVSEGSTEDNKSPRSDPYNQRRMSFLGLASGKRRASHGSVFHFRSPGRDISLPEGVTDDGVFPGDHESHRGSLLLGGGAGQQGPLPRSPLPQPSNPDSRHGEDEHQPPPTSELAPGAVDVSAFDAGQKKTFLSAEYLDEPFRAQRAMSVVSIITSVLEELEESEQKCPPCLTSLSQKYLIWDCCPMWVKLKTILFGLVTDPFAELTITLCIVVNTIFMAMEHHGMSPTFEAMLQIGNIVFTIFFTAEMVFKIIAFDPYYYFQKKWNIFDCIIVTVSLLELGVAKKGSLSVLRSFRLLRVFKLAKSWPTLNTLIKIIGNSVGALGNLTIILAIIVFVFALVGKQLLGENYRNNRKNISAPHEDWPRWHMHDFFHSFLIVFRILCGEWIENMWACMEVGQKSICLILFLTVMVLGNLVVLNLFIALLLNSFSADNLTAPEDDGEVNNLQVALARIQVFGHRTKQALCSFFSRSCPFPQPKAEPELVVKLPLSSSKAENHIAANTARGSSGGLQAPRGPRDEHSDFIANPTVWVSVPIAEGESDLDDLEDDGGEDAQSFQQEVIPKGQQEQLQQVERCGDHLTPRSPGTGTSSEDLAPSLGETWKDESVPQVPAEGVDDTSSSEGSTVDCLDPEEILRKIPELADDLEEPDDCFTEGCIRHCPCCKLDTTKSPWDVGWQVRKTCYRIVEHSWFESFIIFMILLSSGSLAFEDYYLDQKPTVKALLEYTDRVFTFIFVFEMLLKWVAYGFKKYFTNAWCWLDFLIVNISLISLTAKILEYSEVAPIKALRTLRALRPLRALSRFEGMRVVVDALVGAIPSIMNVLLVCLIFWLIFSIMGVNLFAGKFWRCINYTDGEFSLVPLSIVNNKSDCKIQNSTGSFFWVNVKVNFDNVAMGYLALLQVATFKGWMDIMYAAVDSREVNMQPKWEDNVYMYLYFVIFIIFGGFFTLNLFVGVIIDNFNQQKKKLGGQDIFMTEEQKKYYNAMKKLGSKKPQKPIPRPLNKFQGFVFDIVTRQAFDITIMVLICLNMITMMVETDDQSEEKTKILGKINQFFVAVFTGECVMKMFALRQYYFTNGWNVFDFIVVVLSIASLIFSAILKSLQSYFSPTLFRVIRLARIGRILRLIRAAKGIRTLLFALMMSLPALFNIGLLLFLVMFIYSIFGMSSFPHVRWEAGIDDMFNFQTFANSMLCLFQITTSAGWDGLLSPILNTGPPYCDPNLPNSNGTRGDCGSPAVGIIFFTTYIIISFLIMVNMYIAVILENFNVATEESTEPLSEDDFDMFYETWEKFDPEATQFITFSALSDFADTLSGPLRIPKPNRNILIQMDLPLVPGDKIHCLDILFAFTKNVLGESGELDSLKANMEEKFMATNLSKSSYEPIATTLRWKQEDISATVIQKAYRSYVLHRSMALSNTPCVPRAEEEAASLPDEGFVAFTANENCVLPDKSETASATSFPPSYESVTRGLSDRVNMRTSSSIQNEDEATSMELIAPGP
In short: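 Whole-cell manual patch clamp on cells stably overexpressing Nav1.8, held at -120 mV and stepped to 0 mV for 50 ms every 20 s (resting-state protocol). Compounds were perfused in ascending concentrations, each for 5 min or until stable; block of peak current was calculated at steady state.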

[3] = system: CFA-induced rat inflammatory pain model; experiment: CFA-induced rat inflammatory pain model, Von Frey test; format: in vivo, SD rats; conditions: SD rats CFA, Mean + SEM, n = 10
Experimental: Experimental Example 9: Pharmacodynamic effect study of compounds in CFA-induced rat inflammatory pain model Experimental animals: SD rats, male, 180-220 g.
(§5) Compound preparation: 5% (final preparation volume) of DMSO was added to dissolve the test compound, and then 10% (final preparation volume) of Cremophor EL and 85% Saline were sequentially added; an appropriate amount of Celecoxib was weighed, 5% (final preparation volume) of DMSO was added to dissolve the test compound, and then 5% (final preparation volume) of HS-15 and 90% Saline were sequentially added.
SD rats were anesthetized with isoflurane. The right hind paw was disinfected, a needle was inserted subcutaneously at the posterior plantar aspect, and 50 µL of complete Freund's adjuvant (CFA, 1 mg/mL) was administered via subcutaneous injection at the midplantar region, with the needle withdrawn slowly while rotating to prevent leakage. After modeling, local redness and swelling of the soles of the feet, difficulty in walking, and lifting of the affected feet were observed.
as §3
as §4, with “modeling,” for “modeling, the test was repeated, and”, “divided into 6 groups” for “grouped”, “8” for “4”, “administration.” for “administration, and a single dose was administered.”

formalin pain model = experiment: Rat formalin pain model; format: in vivo, SD rats; conditions: SD rats, 125 mg/kg p.o. 120 min before 5% formalin, Mean + SD, n = 10
Experimental: Experimental Example 10: Pharmacodynamic effect study of compounds in rat formalin pain model
Experimental animals: SD rats, male, 180-200 g.
as §5, with “Etoricoxib” for “Celecoxib”, “added; the tramadol injection was diluted with normal saline to the desired concentration.” for “added.”
Each group consisted of 10 animals, and 50 µL of a 5% formalin solution was injected using a microsyringe into the right plantar region.
as §3
Based on different pharmacokinetic properties of the drugs, the administration was performed at 0 min, 60 min, and 120 min before modeling. After injection of the formalin, the number of pain responses in the rats was observed. […] Spontaneous pain responses were observed once every 5 min, and the number of pain responses in the rats within 1 min was counted, with a total observation duration of 60 min. Inhibition rate = (number of pain responses in control group - number of pain responses in administration group)/number of pain responses in control group × 100%.
Table 12. Administration information of compounds of the present disclosure in rat formalin model

incision pain model [4] = experiment: Incision pain model in SD rats, Von Frey test; format: in vivo; conditions: SD rats, Mean + SEM, n = 10
Experimental: Experimental Example 7: Pharmacodynamic effect study of compounds in incision pain model in SD rats
Experimental animals: SD rats, male, 180-220 g.
as §1
as §2, with “rats” for “mice”, “Rats” for “Mice”, “rat” for “mouse”
as §3
as §4, with “divided into 6 groups” for “grouped”, “h,” for “h, and”, “4 h, 6 h, or 8” for “4”

[5] = system: acetic acid writhing model; experiment: Mouse acetic acid writhing model; format: in vivo, ICR mice; conditions: ICR mice, Dose 50 mg/kg
Experimental: Experimental Example 11: Pharmacodynamic effect study of compounds in mouse acetic acid writhing model
Experimental animals: ICR mice, male, 20-24 g.
as §5, with “Etoricoxib” for “Celecoxib”
• 1. The mice were randomly grouped based on the body weight for model establishment, with 10 animals per group. A 0.8% (v/v) acetic acid solution was intraperitoneally injected at an injection volume of 10 mL/kg. • 2. Administration and test
Administration was performed 60 min before modeling. After the acetic acid solution was injected, the number of writhing responses in mice was observed. […] The number of writhing responses was observed and recorded during two intervals: 0-15 min and 15-30 min, with a total observation duration of 30 min. Inhibition rate = (number of writhing responses in control group - number of writhing responses in administration group)/number of writhing responses in control group × 100%. The model control group was given normal saline, the positive control group 1 was given etoricoxib at 20 mg/kg, the positive control group 2 was given VX-548 at 50 mg/kg, and the remaining groups were given the compounds of the present disclosure according to the administration doses in the table below.

For `COc1c([C@@H]2C[C@](C)(C(F)(F)F)S[C@H]2C(=O)Nc2ccc(NS(N)(=O)=O)c(F)c2)ccc(F)c1F` [a-19-A, (2R,3S,5R)-3-(3,4-difluoro-2-methoxyphenyl)-N-[3-fluoro-4-(sulfamoylamino)phenyl]-5-methyl-5-(trifluoromethyl)thiolane-2-carboxamide], the “PWT 50% value (g) Post-surgery, Preadministration” value (“PWT 50% value (g) Post-surgery” for short) (incision pain model [1]) was 0.29 ± 0.13 g, the “PWT 50% value (g) Pre-surgery” value (incision pain model [1]) was 1.33 ± 0.46 g and the “PWT 50% value (g) 0.5 h” value (incision pain model [1]) was 0.47 ± 0.22 g. The “PWT 50% value (g) 2 h” value (incision pain model [1]) was 0.51 ± 0.29 g, the “PWT 50% value (g) 4 h” value (incision pain model [1]) was 0.44 ± 0.18 g and the “PWT 50% value (g) AUC0-8h” value (incision pain model [2]) was 3.04 ± 0.83 g·h. For the same molecule, the IC50 (Nav1.8 channels) was 0.34 nM.
For `CO/N=C(\N)c1cc(NC(=O)[C@@H]2S[C@@](C)(C(F)(F)F)C[C@H]2c2ccc(F)c(F)c2OC)ccn1` [a-57-A], the “PWT 50% value (g) Post-surgery” value (incision pain model [1]) was 0.22 ± 0.02 g, the “PWT 50% value (g) Pre-surgery” value (incision pain model [1]) was 1.29 ± 0.22 g and the “PWT 50% value (g) 0.5 h” value (incision pain model [1]) was 0.43 ± 0.18 g. The “PWT 50% value (g) 2 h” value (incision pain model [1]) was 0.38 ± 0.14 g, the “PWT 50% value (g) 4 h” value (incision pain model [1]) was 0.29 ± 0.11 g and the “PWT 50% value (g) AUC0-8h” value (incision pain model [2]) was 4.4 ± 0.41 g·h. It also gave an IC50 (Nav1.8 channels) of 0.023 nM.
In the case of `COc1c([C@@H]2C[C@](C)(C(F)(F)F)S[C@H]2C(=O)Nc2cccc(S(=O)(=O)N=[N+]=[N-])c2)ccc(F)c1F` [a-65-A, 3-((2R,3S,5R)-3-(3,4-difluoro-2-methoxyphenyl)-5-methyl-5-(trifluoromethyl)tetrahydrothiophene-2-carboxamido)benzenesulfonyl azide], the “PWT 50% value (g) Post-surgery” value (incision pain model [1]) is reported as 0.22 ± 0.02 g, the “PWT 50% value (g) Pre-surgery” value (incision pain model [1]) is reported as 1.13 ± 0.08 g and the “PWT 50% value (g) 0.5 h” value (incision pain model [1]) is reported as 0.38 ± 0.16 g. For the same molecule, the “PWT 50% value (g) 2 h” value (incision pain model [1]) was 0.43 ± 0.17 g, the “PWT 50% value (g) 4 h” value (incision pain model [1]) was 0.51 ± 0.2 g and the “PWT 50% value (g) AUC0-8h” value (incision pain model [2]) was 4.87 ± 0.97 g·h. It also gave an IC50 (Nav1.8 channels) of 0.017 nM.
`Cc1ccc(-c2cc(C(F)(F)F)nn2-c2ccc(S(N)(=O)=O)cc2)cc1` [Celecoxib, reference compound] was tested, and the “PWT 50% value (g) Post-surgery” value ([3]; 80 mg/kg group, baseline before administration) was 3.12 ± 1.14 g, the “PWT 50% value (g) Pre-surgery” value ([3]; 80 mg/kg group, baseline before modeling) was 11.74 ± 2.33 g and the “PWT 50% value (g) Time 0.5 h” value ([3]; 80 mg/kg, 0.5 h after administration) was 5.91 ± 4.09 g. The “PWT 50% value (g) Time 2 h” value ([3]; 80 mg/kg, 2 h after administration) was 4.66 ± 1.69 g, the “PWT 50% value (g) Time 8 h” value ([3]; 80 mg/kg, 8 h after administration) was 3.4 ± 1.38 g and the “PWT 50% value (g) AUC0-8h” value ([3]; 80 mg/kg) was 40.7 ± 15.63 g.
For `COc1c([C@H]2[C@H](C(=O)Nc3ccnc(C(N)=O)c3)O[C@@](C)(C(F)(F)F)[C@H]2C)ccc(F)c1F` [VX-548, reference compound], the “Number of pain responses 0 min” value (formalin pain model; 0 min) was 24.3±8.5, the “Number of pain responses 10 min” value (formalin pain model; 10 min) was 2.4±2.8 and the “Number of pain responses 15 min” value (formalin pain model; 15 min) was 8.8±6.4. The “Number of pain responses 30 min” value (formalin pain model; 30 min) was 13.2±6.3, the “Number of pain responses 40 min” value (formalin pain model; 40 min) was 10.1±6.9 and the “Number of pain responses 50 min” value (formalin pain model; 50 min) was 4.1±4.7. The “Number of pain responses 60 min” value (formalin pain model; 60 min) was 4.7±5.6, the “PWT 50% value (g) Post-surgery” value (incision pain model [4]; 125 mg/kg group, baseline before administration) was 3.95 ± 1.19 g and the “PWT 50% value (g) Pre-surgery” value (incision pain model [4]; 125 mg/kg group, baseline before surgery) was 14.09 ± 1.46 g. The “PWT 50% value (g) Time 0.5 h” value (incision pain model [4]; 125 mg/kg single dose, 0.5 h after administration) was 7.61 ± 5.9 g, the “PWT 50% value (g) Time 2 h” value (incision pain model [4]; 125 mg/kg single dose, 2 h after administration) was 8.97 ± 3.33 g and the “PWT 50% value (g) Time 6 h” value (incision pain model [4]; 125 mg/kg single dose, 6 h after administration) was 6.27 ± 2.34 g. The “PWT 50% value (g) Time 8 h” value (incision pain model [4]; 125 mg/kg single dose, 8 h after administration) was 5.89 ± 2.07 g, the “PWT 50% value (g) AUC0-8h” value (incision pain model [4]; 125 mg/kg single dose) was 58.66 ± 10.33 g and the “Number of writhing responses” value ([5]; 60 min before 0.8% acetic acid i.p., 30 min observation, Mean + SD, n = 10) was 29±16. The “Inhibition rate (%)” value ([5]; inhibition of writhing responses vs control group) was 41.24%.
